According to paper PMC2752672 (Biochemistry, 2009):
Like-named read-outs stand apart in the source and are kept apart here.

What was measured:
[1] = target: T1, KOR (Homo sapiens, UniProt P41145); type: binding; conditions: read-out: Ki a
[2] = target: T1, KOR; type: binding; conditions: read-out: Ki b
[3] = target: T1, KOR; experiment: biochemical; type: biochemical; conditions: for EC50: read-out: EC50 c
[4] = tested on: C57BL/6J mice; type: in vivo, mouse; conditions: for baseline startle activity: 120-dB stimulus, all doses; for prepulse-dependent PPI: all prepulse intensities
[5] = target: T1, KOR; experiment: biochemical; type: binding
[6] = storage stability of the compound; conditions: room temperature / prolonged storage

T1 sequence (P41145 whole entry): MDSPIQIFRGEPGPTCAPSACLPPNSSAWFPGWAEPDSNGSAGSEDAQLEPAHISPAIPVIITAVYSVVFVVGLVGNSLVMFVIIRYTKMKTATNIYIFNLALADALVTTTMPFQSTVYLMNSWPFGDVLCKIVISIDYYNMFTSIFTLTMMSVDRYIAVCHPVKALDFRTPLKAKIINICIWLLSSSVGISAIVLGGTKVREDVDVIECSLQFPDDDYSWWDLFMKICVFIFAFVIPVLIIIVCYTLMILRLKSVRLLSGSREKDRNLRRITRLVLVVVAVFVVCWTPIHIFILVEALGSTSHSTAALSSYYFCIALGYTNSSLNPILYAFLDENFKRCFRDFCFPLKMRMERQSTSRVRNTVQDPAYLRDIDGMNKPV

SMILES: COC(=O)C1CC(OC(=O)C(C)Cl)C(=O)C2C1(C)CCC1C(=O)OC(c3ccoc3)CC12C (single isomer, unassigned) [RB-55-1, (22-S)-22-Chloro-22-methylsalvinorin A]
- Ki [1]: 30 ± 15 nM
- Ki [2]: 269 ± 48 nM
- Relative Emax [3]: 99 +/− 12%
- EC50 [3]: 160 nM

SMILES: COC(=O)C1CC(OC(=O)C(C)Cl)C(=O)C2C1(C)CCC1C(=O)OC(c3ccoc3)CC12C (single isomer, unassigned) [RB-55-2, (22-R)-22-Chloro-22-methylsalvinorin A]
- Ki [1]: 58 ± 32 nM
- Ki [2]: > 3000 nM
- Relative Emax [3]: 98 +/− 8%
- EC50 [3]: 273 nM

SMILES: Oc1ccc2c3c1O[C@H]1c4[nH]c5c(c4C[C@@]4(O)[C@@H](C2)N(CC2CC2)CC[C@]314)C[C@@]1(O)[C@H]2Cc3ccc(O)c4c3[C@@]1(CCN2CC1CC1)[C@H]5O4 [Nor-BNI, nor-binaltorphimine, reference compound]
- antagonism of agonist-induced disruption of PPI ([4]; mouse, in vivo): antagonized salvinorin A and RB-64-induced disruption of PPI

SMILES: COC(=O)[C@@H]1C[C@H](OC(=O)CCl)C(=O)[C@H]2[C@@]1(C)CC[C@H]1C(=O)O[C@H](c3ccoc3)C[C@]21C [RB-48, 22-Chlorosalvinorin A]
- Ki [1]: 2.1 ± 0.8 nM
- Ki [2]: 32 ± 15 nM
- Relative Emax [3]: 85 ± 3%
- EC50 [3]: 0.19 ± 0.01 nM
- wash-resistant inhibition of binding (preliminary studies) [5]: resulted in wash-resistant inhibition of binding

SMILES: COC(=O)[C@@H]1C[C@H](OC(=O)CBr)C(=O)[C@H]2[C@@]1(C)CC[C@H]1C(=O)O[C@H](c3ccoc3)C[C@]21C [RB-50, 22-Bromosalvinorin A]
- Ki [1]: 1.5 ± 0.22 nM
- Ki [2]: 39.6 ± 11.6 nM
- Relative Emax [3]: 76 +/− 7%
- EC50 [3]: 11 nM
- irreversible inhibition of binding, tested as potential affinity ligand [5]: none showed significant irreversible inhibition of binding
- stability on storage [6]: highly unstable at room temperature

SMILES: COC(=O)C1CC(OC(=O)C(C)Cl)C(=O)C2C1(C)CCC1C(=O)OC(c3ccoc3)CC12C [RB-55, (22-R,S)-22-Chloro-22-methylsalvinorin A]
- Ki [1]: 21 ± 3 nM
- Ki [2]: 189 ± 70.1 nM
- Relative Emax [3]: 83 +/− 10%
- EC50 [3]: 35 nM

SMILES: COC(=O)[C@@H]1C[C@H](OC(=O)CSC#N)C(=O)[C@H]2[C@@]1(C)CC[C@H]1C(=O)O[C@H](c3ccoc3)C[C@]21C [RB-64, 22-Thiocyanatosalvinorin A]
- Emax ([3]; read-out: Relative Emax): 95 ± 2%
- maximum of KOR labeled [5]: 59%
- wash-resistant inhibition of KOR binding [5]: 82%
- EC50 ([5]; EC50 for wash-resistant inhibition of binding): 9000 nM
- Null Activity (mAmp displacement) ([4]; 0.005 mg/kg i.p., mice): 8.22 ± 3.73 mAmp displacement
- PPI responses to the 12- and 16-dB prepulses ([4]; 0.005 mg/kg, p < 0.010): depressed responses
- Null Activity (mAmp displacement) ([4]; 0.01 mg/kg i.p., mice): 16.81 ± 4.4 mAmp displacement
- Null Activity (mAmp displacement) ([4]; 0.05 mg/kg i.p., mice): 64.89 ± 10.88 mAmp displacement
- PPI responses to the 12- and 16-dB prepulses ([4]; 0.05 mg/kg, p < 0.052): increased the responses
- Null Activity (mAmp displacement) ([4]; 0.1 mg/kg i.p., mice): 51.6 ± 12.16 mAmp displacement
- overall PPI (overall inhibition) vs vehicle ([4]; 0.1 mg/kg i.p., p < 0.046): significant reduction in overall inhibition
- PPI to the 4 dB prepulse vs vehicle ([4]; 0.005, 0.01, or 0.05 mg/kg, p < 0.047): enhanced relative to vehicle
- overall PPI (overall inhibition) vs vehicle ([4]; 0.01 and 0.05 mg/kg i.p., p < 0.021): marked increases in overall inhibition
- PPI to the 8-dB prepulse vs vehicle ([4]; 0.01 and 0.05 mg/kg, p < 0.031): increased PPI to the 8-dB prepulse
- baseline startle activity [4]: dose-dependent parabolic changes in baseline startle activity
- prepulse-dependent PPI [4]: disrupted prepulse-dependent PPI at all prepulse intensities
- PPI responses to the 12- and 16-dB prepulses vs vehicle ([4]; highest dose (0.1 mg/kg), p < 0.003): significantly depressed compared to the vehicle control
- in vivo efficacy relative to salvinorin A ([4]; in vivo studies (PPI), mice): 20 fold
- null activity, in words ([4]; two highest doses (0.05, 0.1 mg/kg), compared to vehicle, p < 0.001): increased activity
- null activity, in words ([4]; two lower doses (0.005, 0.01 mg/kg)): little effect on null activity
- stability on storage [6]: stable compound and may be stored for prolonged time without decomposition

SMILES: COCC(=O)O[C@H]1C[C@@H](C(=O)OC)[C@]2(C)CC[C@H]3C(=O)O[C@H](c4ccoc4)C[C@]3(C)[C@H]2C1=O [RB-65, 22-Methoxysalvinorin A]
- Ki [1]: 5.7 ± 1.2 nM
- Ki [2]: 431 ± 54.1 nM
- Relative Emax [3]: 99 +/− 11%
- EC50 [3]: 67 nM

SMILES: COC(=O)C1CC(OC(=O)C(Cl)Cl)C(=O)C2C1(C)CCC1C(=O)OC(c3ccoc3)CC12C (stereo not shown) [RB-66, 22,22-Dichlorosalvinorin A]
- Ki [1]: 911 ± 170 nM
- Ki [2]: > 10000 nM
- Relative Emax [3]: 103 +/− 14%
- EC50 [3]: 1680 nM

SMILES: COC(=O)[C@@H]1C[C@H](OC(C)=O)C(=O)[C@H]2[C@@]1(C)CC[C@H]1C(=O)O[C@H](c3ccoc3)C[C@]21C [Salvinorin A, reference compound]
- effect on radioligand binding after incubation and washing (controls) [5]: did not substantially alter radioligand binding
- Null Activity (mAmp displacement) ([4]; 0.25 mg/kg i.p., mice): 19.44 ± 5.83 mAmp displacement
- Null Activity (mAmp displacement) ([4]; 0.5 mg/kg i.p., mice): 28.79 ± 3.99 mAmp displacement
- null activity, in words ([4]; 0.5 mg/kg, compared to all other doses and vehicle, p < 0.001): significant increases in null activity
- Null Activity (mAmp displacement) ([4]; 1.0 mg/kg i.p., mice): 13.63 ± 3.65 mAmp displacement
- PPI at the 8-, 12-, and 16-dB prepulses vs vehicle ([4]; 2 mg/kg): marked reductions in PPI
- PPI responses to 4 dB prepulse vs vehicle ([4]; 2 mg/kg): unchanged from the vehicle control
- Null Activity (mAmp displacement) ([4]; 2.0 mg/kg i.p., mice): 13.76 ± 3.65 mAmp displacement
- overall PPI (overall inhibition) vs vehicle ([4]; 2 mg/kg i.p., p < 0.044): significantly suppressed inhibition
- PPI responses at the 8- and 12-dB prepulses vs vehicle ([4]; 0.25, 0.5, or 1 mg/kg): similar
- overall PPI (overall inhibition) vs vehicle ([4]; 0.25, 0.5, or 1 mg/kg i.p.): similar
- PPI to the 4-dB prepulse vs vehicle ([4]; 0.25, 0.5 or 1 mg/kg, p < 0.051): increased PPI to the 4-dB prepulse
- baseline startle activity [4]: dose-dependent parabolic changes in baseline startle activity
- prepulse-dependent PPI [4]: disrupted prepulse-dependent PPI at all prepulse intensities
